Data reported in patent publication US9012642B2, “Pyrrolopyridinone compounds and methods for treating HIV” (ViiV Healthcare UK Limited, priority 2011, dated 2015).
Structures can show the parent of a compound that is named as a salt. Where two headings read alike, the source gives them in different places.

Tested on: HIV
Assay: HIV MT4 Assay (antiviral HIV activity in MT-4 cells)
Type: cell-based
Protocol: Antiviral HIV activity and cytotoxicity values for compounds of the invention from Table 1 were measured in parallel in the HTLV-1 transformed cell line MT-4 based on the method previously described (Hazen et al., 2007, In vitro antiviral activity of the novel, tyrosyl-based human immunodeficiency virus (HIV) type 1 protease inhibitor brecanavir (GW640385) in combination with other antiretrovirals and against a panel of protease inhibitor-resistant HIV (Hazen et al., “In vitro antiviral activity of the novel, tyrosyl-based human immunodeficiency virus (HIV) type 1 protease inhibitor brecanavir (GW640385) in combination with other antiretrovirals and against a panel of protease inhibitor-resistant HIV”, Antimicrob. Agents Chemother. 2007, 51: 3147-3154; and Pauwels et al., “Sensitive and rapid assay on MT-4 cells for the detection of antiviral compounds against the AIDS virus”, (J. of Virological Methods 1987, 16: 171-185).
Luciferase activity was measured 96 hours later by adding a cell titer glo (Promega, Madison, Wis.). Percent inhibition of cell protection data was plotted relative to no compound control. Under the same condition, cytotoxicity of the compounds was determined using cell titer Glo™ (Promega, Madison, Wis.). IC50s were determined from a 10 point dose response curve using 3-4-fold serial dilution for each compound, which spans a concentration range >1000 fold.
These values are plotted against the molar compound concentrations using the standard four parameter logistic equation: y=((Vmax*x^n)/(K^n+x^n))+Y^2
Y^2=minimum y n=slope factor
Vmax=maximum y x=compound concentration [M]

[1] = Human immunodeficiency virus 1, MT4, HTLV-1 transformed cell line MT-4, luciferase activity measured 96 hours later, Table 3, read-out: HIV MT4 Assay IC50
[2] = MT4, 96 h, read-out: MT4 (IC50)

SMILES	IC50 [1] [µM]	IC50 [2] [µM]
Cc1c(-c2c(C(OC(C)(C)C)C(=O)O)n(C)c(=O)c3c2ccn3Cc2cscn2)ccc2c1CCCO2 (centres unmarked) [Example 50, 2-(tert-butoxy)-2-(6-methyl-4-(5-methylchroman-6-yl)-7-oxo-1-(thiazol-4-ylmethyl)-6,7-dihydro-1H-pyrrolo[2,3-c]pyridin-5-yl)acetic acid, Trifluoroacetic acid salt]	0.23	0.23
Cc1c(-c2c(C(OC(C)(C)C)C(=O)O)n(C)c(=O)c3c2ccn3CC2CCCCC2)ccc2c1CCCO2 (centres unmarked) [Example 51, 2-(tert-butoxy)-2-(1-(cyclohexylmethyl)-6-methyl-4-(5-methylchroman-6-yl)-7-oxo-6,7-dihydro-1H-pyrrolo[2,3-c]pyridin-5-yl)acetic acid]	0.1	0.1
Cc1c(-c2c(C(OC(C)(C)C)C(=O)O)n(C)c(=O)c3c2ccn3CC2CCOCC2)ccc2c1CCCO2 (centres unmarked) [Example 52, 2-(tert-butoxy)-2-(6-methyl-4-(5-methylchroman-6-yl)-7-oxo-1-((tetrahydro-2H-pyran-4-yl)methyl)-6,7-dihydro-1H-pyrrolo[2,3-c]pyridin-5-yl)acetic acid]	0.35	0.35
Cc1c(-c2c(C(OC(C)(C)C)C(=O)O)n(C)c(=O)c3sc4c(c23)CCCC4)ccc2c1CCCO2 (centres unmarked) [Example 55, tert-Butoxy-[2-methyl-4-(5-methyl-chroman-6-yl)-1-oxo-1,2,5,6,7,8-hexahydro-benzo[4,5]thieno[2,3-c]pyridin-3-yl]-acetic acid]	0.13	0.13
Cc1ccc(-c2c(C(OC(C)(C)C)C(=O)O)n(C)c(=O)c3c2c2ccccc2n3Cc2ccc(F)cc2)cc1 (centres unmarked) [Example 56, 2-(tert-butoxy)-2-(9-(4-fluorobenzyl)-2-methyl-1-oxo-4-(p-tolyl)-2,9-dihydro-1H-pyrido[3,4-b]indol-3-yl)acetic acid]	0.74	0.74
Cc1ccc(-c2c(C(OC(C)(C)C)C(=O)O)n(C)c(=O)c3c2c2ccccc2n3C)cc1 (centres unmarked) [Example 57, 2-(tert-butoxy)-2-(2,9-dimethyl-1-oxo-4-(p-tolyl)-2,9-dihydro-1H-pyrido[3,4-b]indol-3-yl)acetic acid]	0.08	0.08
Cc1ccc(-c2c(C(OC(C)(C)C)C(=O)O)n(C)c(=O)c3c2c2c(n3Cc3ccc(F)cc3)CCOC2)cc1 (centres unmarked) [Example 58, 2-(tert-butoxy)-2-(5-(4-fluorobenzyl)-7-methyl-6-oxo-9-(p-tolyl)-1,3,4,5,6,7-hexahydropyrano[3′,4′:4,5]pyrrolo[2,3-c]pyridin-8-yl)acetic acid]	0.75	0.75
Cc1ccc(-c2c(C(OC(C)(C)C)C(=O)O)n(C)c(=O)c3c2c2c(n3Cc3ccc(F)cc3)CCCC2)cc1 (centres unmarked) [Example 59, 2-(tert-butoxy)-2-(9-(4-fluorobenzyl)-2-methyl-1-oxo-4-(p-tolyl)-2,5,6,7,8,9-hexahydro-1H-pyrido[3,4-b]indol-3-yl)acetic acid]	0.28	0.28
Cc1ccc(-c2c(C(OC(C)(C)C)C(=O)O)n(C)c(=O)c3c2c2c(n3C)CCCC2)cc1 (centres unmarked) [Example 60, 2-(tert-butoxy)-2-(2,9-dimethyl-1-oxo-4-(p-tolyl)-2,5,6,7,8,9-hexahydro-1H-pyrido[3,4-b]indol-3-yl)acetic acid]	0.05	0.05
COc1ccc(Cn2c3c(c4c(-c5ccc(C)cc5)c(C(OC(C)(C)C)C(=O)O)n(C)c(=O)c42)CCCC3)cc1 (centres unmarked) [Example 61, 2-(tert-butoxy)-2-(9-(4-methoxybenzyl)-2-methyl-1-oxo-4-(p-tolyl)-2,5,6,7,8,9-hexahydro-1H-pyrido[3,4-b]indol-3-yl)acetic acid]	0.1	0.1
COc1ccc(Cn2c3c(c4c(-c5ccc6c(c5C)CCCO6)c(C(OC(C)(C)C)C(=O)O)n(C)c(=O)c42)CCCC3)cc1 (centres unmarked) [Example 62, 2-(tert-butoxy)-2-(9-(4-methoxybenzyl)-2-methyl-4-(5-methylchroman-6-yl)-1-oxo-2,5,6,7,8,9-hexahydro-1H-pyrido[3,4-b]indol-3-yl)acetic acid]	0.05	0.05
COc1ccc(Cn2ncc3c(-c4ccc(C)c(C)c4)c(C(OC(C)(C)C)C(=O)O)n(C)c(=O)c32)cc1 (centres unmarked) [Example 63, 2-(tert-Butoxy)-2-(4-(3,4-dimethylphenyl)-1-(4-methoxybenzyl)-6-methyl-7-oxo-6,7-dihydro-1H-pyrazolo[3,4-c]pyridin-5-yl)acetic acid]	1.2	1.2
Cc1ccc(-c2c(C(OC(C)(C)C)C(=O)O)n(C)c(=O)c3c2cnn3Cc2ccc(F)cc2)cc1 (centres unmarked) [Example 64, 2-(tert-Butoxy)-2-(1-(4-fluorobenzyl)-6-methyl-7-oxo-4-(p-tolyl)-6,7-dihydro-1H-pyrazolo[3,4-c]pyridin-5-yl)acetic acid]	0.18	0.18
COc1ccc(Cn2ncc3c(-c4ccc5c(c4C)CCCO5)c(C(OC(C)(C)C)C(=O)O)n(C)c(=O)c32)cc1 (centres unmarked) [Example 65]	0.41	0.41
Cc1c(-c2c(C(OC(C)(C)C)C(=O)O)n(C)c(=O)c3c2cnn3Cc2ccccn2)ccc2c1CCCO2 (centres unmarked) [Example 66, 2-(tert-Butoxy)-2-(6-methyl-4-(5-methylchroman-6-yl)-7-oxo-1-(pyridin-2-ylmethyl)-6,7-dihydro-1H-pyrazolo[3,4-c]pyridin-5-yl)acetic acid]	1.36	1.36
Cc1c(-c2c(C(OC(C)(C)C)C(=O)O)n(C)c(=O)c3c2cnn3Cc2ccc(F)cc2)ccc2c1CCCO2 (centres unmarked) [Example 67, 2-(tert-butoxy)-2-(1-(4-fluorobenzyl)-6-methyl-4-(5-methylchroman-6-yl)-7-oxo-6,7-dihydro-1H-pyrazolo[3,4-c]pyridin-5-yl)acetic acid]	0.08	0.08
